Source: patent US20220326255A1, “METHODS OF MONITORING MUCOSAL HEALING” (MediBeacon Inc., priority 2021, published 2022)

Columns and labels:
[1] = Cumulative urinary percent recovery of enterally administered tracer, crossover study in healthy adults and adults with Crohn's disease; format: in vivo, human; conditions: for percent of administered dose recovered in urine: Crohn's disease patients
Description: (§1) A single center, randomized, open label, crossover study was performed to evaluate a solution containing 18.6 mg/mL of a pyrazine derived fluorophore (MB-102) at 1.5 or 3.0 mg/kg versus DSAT (L, 1000 mg and R, 200 mg) administered enterally.
(§2) To compare the dynamic ranges of the fluorophore and DSAT clearances, healthy adults and adults with evidence of small bowel Crohn's disease on magnetic resonance enterography were enrolled. Participants were randomized to receive either the fluorophore tracer or the sugars on treatment day 1, followed by the other tracer 3-7 days later. Urine was collected at baseline and 1, 2, 4, 6, 8, 10, and 12 hours after tracer ingestion. The cumulative urinary percent recovery of the fluorophore tracer was calculated using an Ultra-Performance Liquid Chromatography system with fluorescence detection and cumulative L, R, and L:R ratios using a normal phase, isocratic HPLC-tandem ESI mass spectrometry.

[2] = test system: rat model of small bowel injury; experiment: Percent of administered dose of MB-102 recovered in urine, rat model of small bowel injury; format: in vivo; conditions: rats with bowel injury compared to controls; oral gavage
Description: (§3) To this end, MB-102 was tested in the rat model of small bowel injury (FIGS. 4A and 4B). Transdermal measurements were initiated prior to oral gavage of MB-102 and transdermal measurements, alongside urine, were collected over time. Based on urine samples the Percent of Administered Dose Recovered was higher in rats with bowel injury than controls (FIG. 4A).

[3] = MB-102 plasma concentration (HPLC) after oral dose in healthy and Crohn's disease participants; format: in vivo, human; conditions: for concentration at 360 min / concentration at 720 min: human, plasma, po
Description: In addition, two healthy participants and one participant with Crohn's disease were administered an oral dose of MB-102, and blood samples were collected at 6 and 12 hours post-administration. MB-102 plasma concentration levels were determined by HPLC.

[4] = Safety and tolerability of orally administered MB-102 in the human study; format: in vivo
Description: as §1, §2
5 healthy adults and 4 adults with Crohn's disease completed the study without serious adverse events. […] At 12 hours post-dose in the healthy participants, approximately 0.5% to 1.0% of the administered dose was recovered, reflecting the inability of MB-102 to transverse the intestinal barrier when gut permeability is normal. […]

[5] = test system: rat model of bowel injury; experiment: Transdermal fluorescence detection of fluorophore after oral gavage, rat model of bowel injury; format: in vivo; conditions: monitored continuously
Source text: To probe the ability to assess gut function in a specimen-free and real-time manner, a dual-wavelength transdermal fluorescence detection system was utilized to monitor MB-301 and MB-404 in the rat model of bowel injury. […] Following anaesthetization, the fluorescence detection system was affixed with medical adhesive to a depilated area on the back of each rat. Transdermal fluorescence monitoring was then initiated to detect baseline fluorescence prior to delivery of MB-301 and MB-404 by oral gavage, and was monitored continuously. The concentration of MB-301 as determined by transdermal fluorescence measurements remained low in both injured and control animals (FIG. 2, dashed lines) as this fluorophore is comparatively rapidly absorbed by the small intestine and subsequently cleared. […] Therefore, transdermal detection of MB-301 and MB-404 fluorescence can be used to provide a non-invasive, real-time indication of gut health.
as §3

[6] = test system: rat model of small bowel injury; experiment: Ratio of MB-404 to MB-301 in urine (HPLC) after oral gavage, rat model of small bowel injury; format: in vivo; conditions: injured rats (indomethacin-induced bowel injury) compared to control rats
Source text: DSAT was mimicked using two fluorophores with similar molecular weights to mannitol and lactulose, MB-301 and MB-404 (see Table 2).
Furthermore, like both sugars used in the DSAT, MB-301 and MB-404 are not metabolized and are excreted by glomerular filtration, with neither (or negligible) tubular secretion nor reabsorption. To test the ability to distinguish between healthy and diseased gut, a rat model of small bowel injury was used with two injured and two control rats. The day after indomethacin-induced bowel injury, the rats were anaesthetized, a catheter was inserted for urine collection, and both fluorophores were delivered by oral gavage. Urine was collected prior to oral gavage and at a series of time points post-gavage. Concentrations of MB-301 and MB-404 in urine were determined using HPLC, and the ratio of their concentrations was plotted over time in FIG. 1.

[7] = Control Participants, 360 min post-administration
[8] = Control Participants, 720 min post-administration

SMILES: OC[C@H]1O[C@@H](O[C@@H]2[C@@H](CO)OC(O)(CO)[C@H]2O)[C@H](O)[C@@H](O)[C@H]1O (mixture of isomers) [lactulose, reference compound]
- percent of administered dose recovered in urine [1]: wide range

SMILES: Nc1nc(C(=O)N[C@H](CO)C(=O)O)c(N)nc1C(=O)N[C@H](CO)C(=O)O [MB-102, 3,6-diamino-2,5-bis{N-[(1R)-1-carboxy-2-hydroxyethyl]carbamoyl}pyrazine]
- Percent of Administered Dose Recovered (urine) [2]: higher
- percent of administered dose recovered in urine [1]: wide range
- urine excretion ([1]; diseased participants with respect to controls, oral administration): increased
- MB-102 urine recovery ([1]; patients in remission when the study was performed): near normal values
- Plasma Concentration [3, 7]: 21.3 ng/mL
- Plasma Concentration [3, 8]: 16.7 ng/mL
- concentration at 360 min [3, 7]: 21.2 ng/mL
- concentration at 720 min [3, 8]: 16.8 ng/mL
- concentration at 360 min ([3]; Crohn's Disease Participant, 360 min post-administration): 63.1 ng/mL
- concentration at 720 min ([3]; Crohn's Disease Participant, 720 min post-administration): 26.5 ng/mL
- serious adverse events ([4]; 5 healthy adults and 4 adults with Crohn's disease): no serious adverse events
- tolerability ([4]; healthy adults and adults with Crohn's disease): well tolerated

SMILES: Nc1nc(C(=O)O)c(N)nc1C(=O)O [MB-301, 3,6-diamino-2,5-pyrazine-dicarboxylic acid]
- concentration as determined by transdermal fluorescence measurements ([5]; control animals): remained low
- concentration as determined by transdermal fluorescence measurements ([5]; injured animals): remained low

SMILES: O=C(NCC(O)CO)c1nc(NC[C@H](O)CO)c(C(=O)NCC(O)CO)nc1NC[C@H](O)CO (stereo partly drawn) [MB-404, N^2,N^5-bis(2,3-dihydroxypropyl)-3,6-bis[(S)-2,3-dihydroxypropylamino]pyrazine-2,5-dicarboxamide]
- ratio of MB-404 to MB-301 in urine [6]: higher
- concentration as determined by transdermal fluorescence measurements ([5]; control animals): remained low
- concentration as determined by transdermal fluorescence measurements ([5]; injured animals): increased over time
